From patent US5430027A, “2-chloro-N^6 -substituted adenosines, their pharmaceutical compositions, and activity in treating ischemias” (Novo Nordisk A/S, priority 1992, dated 1995)

Tests used:
A2 receptor = biological target: T1, A2 receptor (Rattus norvegicus, UniProt P30543); test: In vitro binding to adenosine A2 receptor, [3H]-CGS 21680 radioligand; conditions: radioligand [3H]-CGS 21680; read-out: A2 receptor binding (Ki50)
T1 construct: from tissue
Procedure: (§1) Evaluation of in vitro binding to adenosine A1 and A2 receptors
(§2) The affinity of the novel compounds described in this invention for the adenosine A1 receptor was determined essentially as described in the literature using [^3 H]-R-PIA as a radioligand (Naunyn-Schmiedeberg's Archives of Pharmacology, 1980, 313, 179-187). Affinity for the A2 receptor was measured using the radioligand [^3 H]-CGS 21680 (European Journal of Pharmacology, 1989, 168, 243-246), and the values for representative compounds is given in the table below.

adenosine A1 receptor = biological target: T2, adenosine A1 receptor (Rattus norvegicus, UniProt P25099); test: In vitro binding to adenosine A1 receptor, [3H]-R-PIA radioligand; conditions: for Ratio A2/A1: A2 binding Ki50 divided by A1 binding Ki50 (selectivity); for Ki: radioligand [3H]-R-PIA, read-out: A1 receptor binding (Ki50)
T2 construct: from tissue
T2 sequence (P25099 1-326): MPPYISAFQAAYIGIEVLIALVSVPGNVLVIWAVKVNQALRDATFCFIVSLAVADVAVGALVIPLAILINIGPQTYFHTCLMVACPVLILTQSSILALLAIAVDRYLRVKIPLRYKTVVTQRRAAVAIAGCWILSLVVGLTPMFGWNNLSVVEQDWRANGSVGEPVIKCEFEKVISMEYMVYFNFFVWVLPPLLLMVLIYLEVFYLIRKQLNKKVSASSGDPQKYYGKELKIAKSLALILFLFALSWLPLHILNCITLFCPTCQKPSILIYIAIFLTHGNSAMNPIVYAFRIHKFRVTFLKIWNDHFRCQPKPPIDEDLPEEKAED
Procedure: as §1, §2

T1 sequence (P30543 whole entry): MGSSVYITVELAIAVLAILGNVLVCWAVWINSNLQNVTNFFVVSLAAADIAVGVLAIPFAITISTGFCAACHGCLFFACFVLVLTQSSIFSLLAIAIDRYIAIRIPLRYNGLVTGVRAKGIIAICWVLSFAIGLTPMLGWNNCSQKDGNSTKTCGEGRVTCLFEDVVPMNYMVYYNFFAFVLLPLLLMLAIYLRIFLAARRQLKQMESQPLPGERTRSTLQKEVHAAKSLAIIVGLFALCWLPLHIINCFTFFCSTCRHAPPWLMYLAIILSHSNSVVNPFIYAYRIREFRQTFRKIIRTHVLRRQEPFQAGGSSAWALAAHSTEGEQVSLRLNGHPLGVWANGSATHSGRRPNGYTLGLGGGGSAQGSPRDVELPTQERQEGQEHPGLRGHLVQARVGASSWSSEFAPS

Ki (A2 receptor) [µM]	Ratio A2/A1 (adenosine A1 receptor)	Ki (adenosine A1 receptor) [µM]	SMILES
1.66	92	0.018	CN(C)Nc1nc(Cl)nc2c1ncn2[C@@H]1O[C@H](CO)[C@@H](O)[C@H]1O [Example 3, 2-Chloro-N-(N,N-dimethylamino)adenosine]
2.88	429	0.0067	OC[C@H]1O[C@@H](n2cnc3c(NOC4CCCC4)nc(Cl)nc32)[C@H](O)[C@@H]1O [Example 7, 2-Chloro-N-cyclopentyloxyadenosine]
1.15	55	0.021	CONc1nc(Cl)nc2c1ncn2[C@@H]1O[C@H](CO)[C@@H](O)[C@H]1O [Example 8, 2-Chloro-N-methoxyadenosine]
